Reference: US8778966B2, “Quinolinone derivatives as PARP and tank inhibitors” (Janssen Pharmaceutica, NV, priority 2007, dated 2014)

Assays:
Format in all cases: cell-based, human
HCT116 cells [1] = assay: Antiproliferative activity, Alamar Blue assay, HCT116 cells; settings: Homo sapiens, HCT-116, HCT116 cells; read-out: HCT116 antiproliferative activity pIC50 (converted)
How it was run: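 HCT116 cells seeded, adhered 24 h, then exposed to compound for 4 days; Alamar Blue (resazurin) added for 4 h at 37 °C, fluorescence read at 540/590 nm. Viability as % of untreated control, triplicate wells; IC50 by probit analysis, reported as pIC50.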

HCT116 cells [2] = assay: Mitotic arrest assay on HCT116 cells (phospho-histone H3 Ser10); settings: Homo sapiens, HCT-116, HCT116 cells; lowest active dose; read-out: Mitotic arrest HCT116 LAD (converted)
From the text: Phosphorylation of histone H3 is tightly correlated with chromosome condensation during both mitosis and meiosis. The assay is a cellular immunosorbent assay wherein the sole antibody is labelled with a detectable conjugate. The phospho-histone H3 (ser10) antibody detects endogenous levels of histone H3 only when phosphorylated at serine 10. […] In parallel with antibody detection, the nuclei of the cells are stained with Hoechst 33342 for cell-counting. Cells are detected and analysed using the InCell Analyzer 1000 from GE Healthcare. Since both the antibody-detection as well as the Hoechst-staining are in the nucleus, the dual area object intensity algorithm is used for analysing the wells.
All compounds tested were dissolved in DMSO and further dilutions were made in culture medium. Final DMSO concentrations never exceeded 0.1% (v/v).
HCT116 cells (supplier: ATCC) (human colon carcinoma cell line) were cultivated in Mc Coy's 5 A medium (supplier: Gibco) supplemented with 10% foetal calf serum (FCS), 2 mM L-glutamine and gentamycin at 37° C. in a humidified incubator with 5% CO2.
HCT116 cells were seeded at 20.000 cells per well in a 96 well plate (black/clear bottom, poly-D-lysine coated, supplier Greiner), cultured overnight to adhere to the bottom of the plate and treated with compound for 6 hours at 37° C. in a humidified incubator. After incubation, the medium was removed and cells were fixed using 100 μl/well formaldehyde (Accustain®, Formaline solution 10% neutral buffered, contains 4% formaldehyde w/v, supplier: Sigma) was added. After incubation for 15 minutes at room temperature, the formaldehyde was removed and cells were incubated with methanol (−20° C.) for 15 minutes at room temperature. After incubation, cells were washed once with phosphate-buffered saline (PBS —CaCl2, —MgCl2, suppier: Gibco)/0.05% Tween 20. The anti-phospho-histone H3 (Ser10) Alexa Fluor 488 antibody (supplier: Cell signalling) is used for detection of the cells inmitosis. The antibody was diluted 1/50 in 5% bovine serum albumins (BSA) and 50 μl/well was used for incubation overnight at room temperature in the dark.
A 1/2000 dilution of Hoechtst 33342 (10 mg/ml, supplier: Invitrogen) was made and 100 μl/well was added for at least 30 minutes before acquiring images. The absorbance at dual wavelengths of 360/480 nm was measured using the InCell Analyzer 1000 from GE Healthcare and the results were then analyzed.
For each experiment, controls (containing no drug) and a blank incubation (containing no cells or drugs) were run in parallel. Analysis was done in triplicate. Low cell count wells were invalidated. The blank value was subtracted from all control and sample values and divided by the standard deviation of the measurements. The compounds were considered active when the obtained value (sigma) was >5. Herein the effects of test compounds are expressed as the lowest dose giving a sigma value of >5 (LAD) (see table F-2).

PC-3 cells = assay: Antiproliferative activity, Alamar Blue assay, PC-3 cells; settings: Homo sapiens, PC-3, PC3 cells; read-out: PC3 antiproliferative activity pIC50 (converted)
How it was run: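 PC-3 cells seeded at 4.5×10^3 cells/ml, left to adhere 24 hr, then exposed to compound for 4 days. Resazurin (Alamar Blue) added for a further 24 hrs at 37° C; fluorescence read at 540/590 nm. Viability as % of untreated control, mean of 3 wells; IC50 by probit analysis, reported as pIC50.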

`CCc1cc2ccc(C(C)(C#N)CCOc3ccccc3Cl)cc2[nH]c1=O` (stereo not drawn) [Compound 152] was tested, and the IC50 (HCT116 cells [1]) was 631 nM, the minimal effective concentration (HCT116 cells [2]) was 0.316 µM and the IC50 (PC-3 cells) was 1580 nM.

`CCc1cc2ccc(C(C)(C#N)Cc3cccc(Cl)c3Cl)cc2[nH]c1=O` (stereo not drawn) [Compound 121] gave an IC50 (HCT116 cells [1]) of 158 nM, a minimal effective concentration (HCT116 cells [2]) of 0.316 µM and an IC50 (PC-3 cells) of 631 nM.

`CCc1cc2ccc(C(C)(C#N)Cc3ccc(F)cc3F)cc2[nH]c1=O` (stereo not drawn) [Compound 137] showed an IC50 (HCT116 cells [1]) of 251 nM, a minimal effective concentration (HCT116 cells [2]) of 0.316 µM and an IC50 (PC-3 cells) of 794 nM.

`CCc1cc2ccc(C(C)(C#N)CCOc3ccccc3C)cc2[nH]c1=O` (stereo not drawn) [Compound 148] gave an IC50 (HCT116 cells [1]) of 316 nM, a minimal effective concentration (HCT116 cells [2]) of 0.316 µM and an IC50 (PC-3 cells) of 794 nM.

`CCc1cc2ccc(C(C)(C#N)CCOc3ccccc3)cc2[nH]c1=O` (stereo not drawn) [Compound 145] gave an IC50 (HCT116 cells [1]) of 398 nM, a minimal effective concentration (HCT116 cells [2]) of 0.316 µM and an IC50 (PC-3 cells) of 501 nM.

Work on `CCc1cc2ccc(C(C)(C#N)Cc3cccc(Cl)c3F)cc2[nH]c1=O` (stereo not drawn) [Compound 130] yielded an IC50 (HCT116 cells [1]) of 158 nM, a minimal effective concentration (HCT116 cells [2]) of 0.1 µM and an IC50 (PC-3 cells) of 398 nM.
